Laboratory results reported in paper PMC12526004, “Tiliroside Suppresses Uric Acid Production in Hepatocytes and Attenuates Purine-Induced Hyperuricemia in Male ICR Mice” (Molecules, 2025).

What was measured:
[1] = system: hepatic XO protein expression; experiment: Western blot of hepatic XO protein expression; assay type: in vivo, male ICR mice; settings: three days, normalized to GAPDH
Protocol: The antihyperuricemic effect of tiliroside was evaluated using mice with purine-induced hyperuricemia, following a previously described procedure. […] The test compounds were suspended in 0.2 mL of 0.5% CMC-Na based on the average body weight of each group. The actual volume administered was adjusted according to the individual body weight of each mouse. Prior to each administration, the mice were fasted for four hours. The negative and hyperuricemic control groups received the vehicle (0.5% CMC-Na) alone. […] GMP and IMP were dissolved in 0.2 mL of PBS (–) based on the average body weight of all mice. The injection volume was similarly adjusted according to each mouse’s body weight. These injections were performed one hour after the final oral administration of the test compounds or vehicle. The negative control group received PBS (–) alone. […] The liver and kidneys were then excised. Blood samples were centrifuged at 5000× g for 10 min at 4 °C to obtain plasma, which was stored at −80 °C until analysis. Liver samples preparation was performed according to the methods previously described. Each portion of the liver tissue was processed for a specific analysis. One portion was homogenized in ice-cold 100 mM Tris-HCl buffer (pH 7.5), followed by sonication and centrifugation at 10,000× g for 5 min at 4 °C. The resulting supernatant was collected for the determination of UA levels. […]

OAT1 = experiment: Renal mRNA expression, real-time quantitative PCR; assay type: in vivo, male ICR mice; settings: three days
Protocol: (§1) The antihyperuricemic effect of tiliroside was evaluated using mice with purine-induced hyperuricemia, following a previously described procedure. […] The test compounds were suspended in 0.2 mL of 0.5% CMC-Na based on the average body weight of each group. The actual volume administered was adjusted according to the individual body weight of each mouse. Prior to each administration, the mice were fasted for four hours. The negative and hyperuricemic control groups received the vehicle (0.5% CMC-Na) alone. […] GMP and IMP were dissolved in 0.2 mL of PBS (–) based on the average body weight of all mice. The injection volume was similarly adjusted according to each mouse’s body weight. These injections were performed one hour after the final oral administration of the test compounds or vehicle. The negative control group received PBS (–) alone. […] The liver and kidneys were then excised. Blood samples were centrifuged at 5000× g for 10 min at 4 °C to obtain plasma, which was stored at −80 °C until analysis. To assess renal gene expression, four mice per group were selected based on plasma UA levels approximating the group mean. Total RNA was extracted from kidney tissues of the negative control, hyperuricemic model, allopurinol-treated, and high-dose tiliroside-treated groups using the Trizol-chloroform method (Thermo Fisher Scientific). Reverse transcription was performed with 1 µg of RNA using iScript reverse transcriptase (Bio-Rad, Hercules, CA, USA). Quantitative PCR was conducted using the MyiQ2 real-time PCR system (Bio-Rad), with GAPDH as the reference gene.

NPT4 = experiment: Renal mRNA expression, real-time quantitative PCR; assay type: in vivo, male ICR mice; settings: three days
Protocol: as §1

URAT1 = experiment: Renal mRNA expression, real-time quantitative PCR; assay type: in vivo, male ICR mice; settings: three days, vs hyperuricemic control
Protocol: as §1

AML12 hepatocytes = experiment: UA production by AML12 cells stimulated with UA precursors; assay type: cell-based; settings: for maximum reduction of UA production: guanosine + inosine (GI mixture) 100 µM each, 2 h, vs control (0 µM); for UA production: UA precursor xanthine
Protocol: AML12 hepatocytes used in this study were acquired from ATCC (CRL-2254), Manassas, VA, USA. AML12 cells were maintained in DMEM/F-12 (Life Technologies, Grand Island, NY, USA) supplemented with 10% (v/v) fetal bovine serum (FBS; Hyclone, Logan, UT, USA), recombinant human insulin (5 µg/mL), human transferrin (5 µg/mL), and dexamethasone (40 ng/mL), each obtained from FUJIFILM Wako, as well as selenium (3 ng/mL, Sigma-Aldrich) and penicillin–streptomycin mixed solution (100 U/mL penicillin and 100 µg/mL streptomycin, Nacalai Tesque), under a humidified atmosphere of 5% CO2 at 37 °C. Culture of AML12 hepatocytes and measurement of UA production were conducted following a previously reported protocol.Cells were seeded at a density of 1.0 × 10^5 cells per well in 24-well plates and cultured for 72 h in complete medium, followed by 24 h in serum-free DMEM/F-12. After serum deprivation, cells were rinsed once with calcium- and magnesium-free phosphate-buffered saline [PBS (–)] and incubated in 200 µL of balanced salt solution (BSS) containing […], 5 mM KCl, 1 mM MgCl2, 0.8 mM CaCl2, 25 mM NaHCO3, 1 mM NaH2PO4, 10 mM HEPES, and 5 mM glucose. […] The final concentration of DMSO in all samples was adjusted to 0.15%. After a 2-h incubation, 200 µL of the reaction mixture was collected for UA quantification. The UA concentration in BSS was used as an indicator of UA production. Subsequently, cells were washed with PBS (–) and lysed in 300 µL of buffer containing 50 mM Tris and 1 mM sodium phosphate (pH 7.5). Lysates were sonicated and centrifuged (12,000× g, 5 min, 4 °C), and the supernatants were used for protein quantification using the Pierce™ BCA Protein Assay Kit (Thermo Fisher Scientific Inc., Waltham, MA, USA). UA levels were measured using the uricase-based Uric Acid C-Test Wako (FUJIFILM Wako). UA production was expressed as nanomoles per 2 h per milligram of cellular protein (nmol/2 h/mg protein).

Structure (SMILES)	hepatic XO protein expression ([1]; 10 mg/kg oral)	renal OAT1 mRNA expression (OAT1; 10 mg/kg oral)	renal NPT4 mRNA expression (NPT4; 10 mg/kg oral)	renal URAT1 mRNA expression (URAT1; 10 mg/kg oral)	maximum reduction of UA production (AML12 hepatocytes; 1 µM)	hepatic XO protein expression ([1]; all tested doses (50, 100, and 300 mg/kg) oral)	renal OAT1 mRNA expression (OAT1; 300 mg/kg oral)	renal NPT4 mRNA expression (NPT4; 300 mg/kg oral)	renal URAT1 mRNA expression (URAT1; 300 mg/kg oral)	UA production (AML12 hepatocytes; 10 µM)	UA production (AML12 hepatocytes; 30 µM)	UA production (AML12 hepatocytes; 100 µM)	maximum reduction of UA production (AML12 hepatocytes; 100 µM)
Oc1ncnc2[nH]ncc12 [Allopurinol, allopurinol, reference compound]	No statistically significant differences	no significant differences	no significant differences	significantly downregulated	approximately 94.6%	–	–	–	–	–	–	–	–
O=C(/C=C/c1ccc(O)cc1)OC[C@H]1O[C@@H](Oc2c(-c3ccc(O)cc3)oc3cc(O)cc(O)c3c2=O)[C@H](O)[C@@H](O)[C@@H]1O [Tiliroside, kaempferol-3-O-(6′′-p-coumaroyl)-glucoside]	–	–	–	–	–	No statistically significant differences	no significant differences	no significant differences	significantly downregulated	82.7 ± 2.4 nmol/2 h/mg protein	45.4 ± 1.8 nmol/2 h/mg protein	28.0 ± 1.2 nmol/2 h/mg protein	approximately 86.6%
